Measured values published in publication PMC3712578, “Luteolin is a novel p90 ribosomal S6 kinase (RSK) inhibitor that suppresses Notch4 signaling by blocking the activation of Y-box binding protein-1 (YB-1)” (Oncotarget, 2013).

Legend:
RSK2 [1] = target: T1, RSK2 (Homo sapiens, UniProt P51812); assay: biochemical; design: In vitro RSK2 kinase assay with S6K peptide substrate, dose-response 0.001-100 uM (SignalChem)
T1 construct: gene RPS6KA3
Experimental: Following the RSK1 screen, a broad dose-response study (0.001-100 μM) was conducted against RSK2 using the YB-1 peptide as a substrate in cell-free assays (Table 2). […] Kinase profiling services for RSK2 were provided by SignalChem, as previously described. […] To confirm inhibition of RSK2 activity, we also repeated the kinase assay with a secondary RSK substrate, S6K.

RSK2 [2] = target: T1, RSK2; assay: in vitro RSK2 kinase assay, YB-1 peptide substrate; type: biochemical
RSK1 [3] = target: T2, RSK1 (Homo sapiens, UniProt Q15418); assay: biochemical; design: In vitro RSK1 kinase assay with S6K peptide substrate, dose-response 0.001-100 uM
T2 construct: gene RPS6KA1
T2 sequence (Q15418 whole entry): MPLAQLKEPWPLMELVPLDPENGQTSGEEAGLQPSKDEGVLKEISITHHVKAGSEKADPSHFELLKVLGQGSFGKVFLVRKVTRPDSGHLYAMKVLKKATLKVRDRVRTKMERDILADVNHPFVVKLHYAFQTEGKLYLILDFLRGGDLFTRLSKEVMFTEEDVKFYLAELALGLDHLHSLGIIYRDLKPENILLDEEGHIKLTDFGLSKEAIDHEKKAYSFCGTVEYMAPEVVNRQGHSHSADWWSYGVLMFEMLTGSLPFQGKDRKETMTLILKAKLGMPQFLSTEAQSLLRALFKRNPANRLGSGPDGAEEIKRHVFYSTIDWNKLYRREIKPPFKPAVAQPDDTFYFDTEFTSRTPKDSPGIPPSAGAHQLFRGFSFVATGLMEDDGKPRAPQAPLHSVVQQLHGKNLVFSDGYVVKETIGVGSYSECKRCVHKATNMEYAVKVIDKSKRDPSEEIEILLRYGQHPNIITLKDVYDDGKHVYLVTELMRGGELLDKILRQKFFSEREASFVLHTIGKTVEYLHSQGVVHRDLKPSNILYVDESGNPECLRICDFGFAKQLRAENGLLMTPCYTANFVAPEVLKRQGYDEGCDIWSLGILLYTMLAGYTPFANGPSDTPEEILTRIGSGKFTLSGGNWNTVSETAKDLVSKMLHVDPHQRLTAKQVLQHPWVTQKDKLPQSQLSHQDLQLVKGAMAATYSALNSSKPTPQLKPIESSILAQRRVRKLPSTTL

RSK1 [4] = target: T2, RSK1; assay: in vitro RSK1 kinase assay, YB-1 peptide ([…] screen) and S6K peptide dose response; type: biochemical
[5] = read-out: Inhibition of RSK2 (%) against the YB-1 peptide as the substrate / IC50

T1 sequence (P51812 whole entry): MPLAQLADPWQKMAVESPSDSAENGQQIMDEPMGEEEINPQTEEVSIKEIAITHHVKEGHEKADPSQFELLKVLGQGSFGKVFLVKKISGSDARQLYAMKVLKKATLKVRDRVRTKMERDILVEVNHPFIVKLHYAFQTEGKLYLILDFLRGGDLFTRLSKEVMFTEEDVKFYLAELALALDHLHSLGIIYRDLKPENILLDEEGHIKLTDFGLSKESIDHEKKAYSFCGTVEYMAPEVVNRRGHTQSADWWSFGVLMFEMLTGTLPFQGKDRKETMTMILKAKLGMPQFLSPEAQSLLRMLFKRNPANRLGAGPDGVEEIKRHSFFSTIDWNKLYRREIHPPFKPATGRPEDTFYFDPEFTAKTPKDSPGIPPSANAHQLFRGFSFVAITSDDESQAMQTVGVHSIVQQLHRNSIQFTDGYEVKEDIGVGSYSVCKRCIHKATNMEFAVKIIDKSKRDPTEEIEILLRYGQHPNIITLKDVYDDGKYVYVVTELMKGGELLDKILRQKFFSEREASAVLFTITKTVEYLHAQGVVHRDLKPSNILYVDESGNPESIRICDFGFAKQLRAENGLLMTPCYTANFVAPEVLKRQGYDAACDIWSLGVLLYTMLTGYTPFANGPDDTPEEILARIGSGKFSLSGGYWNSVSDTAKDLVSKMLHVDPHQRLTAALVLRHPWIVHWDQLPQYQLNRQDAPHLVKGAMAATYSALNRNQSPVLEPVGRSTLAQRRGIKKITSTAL

| SMILES | IC50 (RSK2 [1]) | IC50 (RSK2 [2]) | IC50 (RSK1 [3]) | in vitro RSK1 kinase assay, YB-1 peptide (10 μM screen) and S6K peptide dose res (RSK1 [4]) | IC50 (RSK2 [2]; [5]) |
| --- | --- | --- | --- | --- | --- |
| O=c1cc(-c2ccc(O)cc2)oc2cc(O)cc(O)c12 [Apigenin] | 3.48 µM | 4.77 µM | 3.78 µM | – | – |
| O=c1c(O)c(-c2ccc(O)cc2)oc2cc(O)cc(O)c12 [Kaempferol] | 0.76 µM | – | 1.48 µM | all three compounds inhibited the kinase activity of both isoforms in the low micromolar range | 1.71 µM |
| O=c1cc(-c2ccc(O)c(O)c2)oc2cc(O)cc(O)c12 [Luteolin] | – | – | 2.25 µM | all three compounds inhibited the kinase activity of both isoforms in the low micromolar range | 4.42 µM |
